Measured values reported in US11274283B2 (priority 2014, dated 2022).

Key:
mushroom tyrosinase [1] = conditions: at 5 mM; scientific literature; cited from earlier work
[2] = test system: Ralstonia solanacearum tyrosinase; type: biochemical; conditions: up to 400 mM
mushroom tyrosinase [3] = test: Inhibition of mushroom tyrosinase; type: biochemical; conditions: cannot complete the reaction

With O=C1O[C@H]([C@@H](O)CO)C(O)=C1O [ascorbic acid] as the compound, how does the “inhibition of mushroom tyrosinase” value (mushroom tyrosinase [1]) read?
The value was “inhibition”.

For O=C1O[C@H]([C@@H](O)CO)C([O-])=C1O.[Na+] [ascorbic acid sodium salt], which “inhibition of Ralstonia solanacearum tyrosinase activity” value [2] is on record?
The value was “No inhibition”.

Which “tyrosol concentration above which commercial mushroom tyrosinase is inhibited” value (mushroom tyrosinase [3]) does the source give for OCCc1ccc(O)cc1 [tyrosol, 4-(2-hydroxyethyl)phenol] here?
The value was “above 10 g/l”.
